Reference: the OligoGym collection
HELM strings list units from the 5' end as sugar, base in round brackets, then linkage (d deoxyribose, r ribose, m 2'-O-methyl, p phosphodiester). Strings are as the collection lists them; they lack the last nucleoside at the 3' end of the tested compound. [moe] = 2'-O-(2-methoxyethyl) (MOE); [sp] = phosphorothioate linkage; [m5C] = 5-methylcytosine

Molecular target: SMN2
Assay: mouse, dose not given
Conditions: ASO

**Q.** With “RNA1{[moe]([m5C])[sp].[moe](A)[sp].[moe]([m5C])p.[moe](T)p.[moe](T)p.[moe](T)p.[moe]([m5C])[sp].[moe](A)[sp].[moe](T)[sp].[moe](A)[sp].[moe](A)[sp].[moe](T)[sp].[moe](G)[sp].[moe]([m5C])[sp].[moe](T)[sp].[moe](G)[sp].[moe](G)}$$$$ (last 3' nucleoside missing)” as the substance, how does the 3 h FOB score read?
**A.** Its 3 h FOB score is 0 score 0-7.

**Q.** Which 3 h FOB score does the source give for “RNA1{[moe]([m5C])[sp].[moe](A)p.[moe]([m5C])[sp].[moe](T)[sp].[moe](T)[sp].[moe](T)[sp].[moe]([m5C])[sp].[moe](A)[sp].[moe](T)[sp].[moe](A)[sp].[moe](A)[sp].[moe](T)[sp].[moe](G)[sp].[moe]([m5C])[sp].[moe](T)p.[moe](G)[sp].[moe](G)}$$$$ (last 3' nucleoside missing)” here?
**A.** Its 3 h FOB score is 0 score 0-7.

**Q.** With “RNA1{[moe]([m5C])[sp].[moe](A)p.[moe]([m5C])[sp].[moe](T)[sp].[moe](T)[sp].[moe](T)[sp].[moe]([m5C])[sp].[moe](A)[sp].[moe](T)[sp].[moe](A)[sp].[moe](A)[sp].[moe](T)p.[moe](G)[sp].[moe]([m5C])[sp].[moe](T)[sp].[moe](G)[sp].[moe](G)}$$$$ (last 3' nucleoside missing)” as the substance, how does the 3 h FOB score read?
**A.** The 3 h FOB score was 0 score 0-7.

**Q.** Which 3 h FOB score does the source give for “RNA1{[moe]([m5C])[sp].[moe](A)p.[moe]([m5C])[sp].[moe](T)[sp].[moe](T)[sp].[moe](T)[sp].[moe]([m5C])[sp].[moe](A)[sp].[moe](T)[sp].[moe](A)p.[moe](A)[sp].[moe](T)[sp].[moe](G)[sp].[moe]([m5C])[sp].[moe](T)[sp].[moe](G)[sp].[moe](G)}$$$$ (last 3' nucleoside missing)” here?
**A.** The 3 h FOB score was 0 score 0-7.

**Q.** Which 3 h FOB score does the source give for “RNA1{[moe]([m5C])[sp].[moe](A)p.[moe]([m5C])[sp].[moe](T)[sp].[moe](T)[sp].[moe](T)[sp].[moe]([m5C])[sp].[moe](A)p.[moe](T)[sp].[moe](A)[sp].[moe](A)[sp].[moe](T)[sp].[moe](G)[sp].[moe]([m5C])[sp].[moe](T)[sp].[moe](G)[sp].[moe](G)}$$$$ (last 3' nucleoside missing)” here?
**A.** Its 3 h FOB score is 1 score 0-7.

**Q.** “RNA1{[moe]([m5C])[sp].[moe](A)p.[moe]([m5C])[sp].[moe](T)[sp].[moe](T)[sp].[moe](T)p.[moe]([m5C])[sp].[moe](A)[sp].[moe](T)[sp].[moe](A)[sp].[moe](A)[sp].[moe](T)[sp].[moe](G)[sp].[moe]([m5C])[sp].[moe](T)[sp].[moe](G)[sp].[moe](G)}$$$$ (last 3' nucleoside missing)” was tested. Which 3 h FOB score did it give?
**A.** The 3 h FOB score was 0 score 0-7.

**Q.** “RNA1{[moe]([m5C])[sp].[moe](A)p.[moe]([m5C])[sp].[moe](T)p.[moe](T)[sp].[moe](T)[sp].[moe]([m5C])[sp].[moe](A)[sp].[moe](T)[sp].[moe](A)[sp].[moe](A)[sp].[moe](T)[sp].[moe](G)[sp].[moe]([m5C])[sp].[moe](T)[sp].[moe](G)[sp].[moe](G)}$$$$ (last 3' nucleoside missing)” was tested. Which 3 h FOB score did it give?
**A.** The 3 h FOB score was 0 score 0-7.

**Q.** With “RNA1{[moe]([m5C])[sp].[moe](A)p.[moe]([m5C])p.[moe](T)[sp].[moe](T)[sp].[moe](T)[sp].[moe]([m5C])[sp].[moe](A)[sp].[moe](T)[sp].[moe](A)[sp].[moe](A)[sp].[moe](T)[sp].[moe](G)[sp].[moe]([m5C])[sp].[moe](T)[sp].[moe](G)[sp].[moe](G)}$$$$ (last 3' nucleoside missing)” as the substance, how does the 3 h FOB score read?
**A.** The 3 h FOB score was 0 score 0-7.

**Q.** How did the 3 h FOB score turn out when “RNA1{[moe]([m5C])[sp].[moe](A)p.[moe]([m5C])p.[moe](T)[sp].[moe](T)[sp].[moe](T)[sp].[moe]([m5C])[sp].[moe](A)[sp].[moe](T)[sp].[moe](A)[sp].[moe](A)[sp].[moe](T)[sp].[moe](G)[sp].[moe]([m5C])p.[moe](T)p.[moe](G)[sp].[moe](G)}$$$$ (last 3' nucleoside missing)” was run?
**A.** Its 3 h FOB score is 0 score 0-7.

**Q.** For “RNA1{[moe]([m5C])[sp].[moe](A)p.[moe]([m5C])p.[moe](T)p.[moe](T)[sp].[moe](T)[sp].[moe]([m5C])[sp].[moe](A)[sp].[moe](T)[sp].[moe](A)[sp].[moe](A)[sp].[moe](T)[sp].[moe](G)[sp].[moe]([m5C])p.[moe](T)p.[moe](G)[sp].[moe](G)}$$$$ (last 3' nucleoside missing)”, which 3 h FOB score is on record?
**A.** Its 3 h FOB score is 0 score 0-7.

**Q.** With “RNA1{[moe]([m5C])[sp].[moe](A)p.[moe]([m5C])p.[moe](T)p.[moe](T)[sp].[moe](T)[sp].[moe]([m5C])[sp].[moe](A)[sp].[moe](T)[sp].[moe](A)[sp].[moe](A)[sp].[moe](T)[sp].[moe](G)p.[moe]([m5C])p.[moe](T)p.[moe](G)[sp].[moe](G)}$$$$ (last 3' nucleoside missing)” as the substance, how does the 3 h FOB score read?
**A.** The 3 h FOB score was 0 score 0-7.

**Q.** How did the 3 h FOB score turn out when “RNA1{[moe]([m5C])[sp].[moe](A)p.[moe]([m5C])p.[moe](T)p.[moe](T)p.[moe](T)[sp].[moe]([m5C])[sp].[moe](A)[sp].[moe](T)[sp].[moe](A)[sp].[moe](A)[sp].[moe](T)[sp].[moe](G)p.[moe]([m5C])p.[moe](T)p.[moe](G)[sp].[moe](G)}$$$$ (last 3' nucleoside missing)” was run?
**A.** The 3 h FOB score was 0 score 0-7.

**Q.** How did the 3 h FOB score turn out when “RNA1{[moe]([m5C])[sp].[moe](T)[sp].[moe](T)[sp].[moe](T)[sp].[moe]([m5C])[sp].[moe](A)[sp].[moe](T)[sp].[moe](A)[sp].[moe](A)[sp].[moe](T)[sp].[moe](G)[sp].[moe]([m5C])[sp].[moe](T)[sp].[moe](G)[sp].[moe](G)}$$$$ (last 3' nucleoside missing)” was run?
**A.** Its 3 h FOB score is 2.88 score 0-7.

**Q.** “RNA1{[moe]([m5C])[sp].[moe](T)[sp].[moe](T)[sp].[moe](T)[sp].[moe]([m5C])[sp].[moe](A)[sp].[moe](T)[sp].[moe](A)[sp].[moe](A)[sp].[moe](T)p.[moe](G)p.[moe]([m5C])p.[moe](T)p.[moe](G)[sp].[moe](G)}$$$$ (last 3' nucleoside missing)” was tested. Which 3 h FOB score did it give?
**A.** The 3 h FOB score was 0 score 0-7.

**Q.** With “RNA1{[moe]([m5C])[sp].[moe](T)[sp].[moe](T)[sp].[moe](T)[sp].[moe]([m5C])[sp].[moe](A)[sp].[moe](T)[sp].[moe](A)[sp].[moe](A)p.[moe](T)p.[moe](G)p.[moe]([m5C])p.[moe](T)[sp].[moe](G)[sp].[moe](G)}$$$$ (last 3' nucleoside missing)” as the substance, how does the 3 h FOB score read?
**A.** Its 3 h FOB score is 0 score 0-7.

**Q.** Which 3 h FOB score does the source give for “RNA1{[moe]([m5C])[sp].[moe](T)[sp].[moe](T)[sp].[moe](T)[sp].[moe]([m5C])[sp].[moe](A)[sp].[moe](T)p.[moe](A)p.[moe](A)p.[moe](T)[sp].[moe](G)[sp].[moe]([m5C])[sp].[moe](T)[sp].[moe](G)[sp].[moe](G)}$$$$ (last 3' nucleoside missing)” here?
**A.** Its 3 h FOB score is 2 score 0-7.

**Q.** “RNA1{[moe]([m5C])[sp].[moe](T)[sp].[moe](T)[sp].[moe](T)[sp].[moe]([m5C])[sp].[moe](A)[sp].[moe](T)p.[moe](A)p.[moe](A)p.[moe](T)p.[moe](G)[sp].[moe]([m5C])[sp].[moe](T)[sp].[moe](G)[sp].[moe](G)}$$$$ (last 3' nucleoside missing)” was tested. Which 3 h FOB score did it give?
**A.** Its 3 h FOB score is 0.75 score 0-7.

**Q.** For “RNA1{[moe]([m5C])[sp].[moe](T)[sp].[moe](T)[sp].[moe](T)[sp].[moe]([m5C])[sp].[moe](A)p.[moe](T)p.[moe](A)p.[moe](A)p.[moe](T)p.[moe](G)[sp].[moe]([m5C])[sp].[moe](T)[sp].[moe](G)[sp].[moe](G)}$$$$ (last 3' nucleoside missing)”, which 3 h FOB score is on record?
**A.** Its 3 h FOB score is 1 score 0-7.

**Q.** How did the 3 h FOB score turn out when “RNA1{[moe]([m5C])[sp].[moe](T)[sp].[moe](T)[sp].[moe](T)[sp].[moe]([m5C])[sp].[moe](A)p.[moe](T)p.[moe](A)p.[moe](A)p.[moe](T)p.[moe](G)p.[moe]([m5C])[sp].[moe](T)[sp].[moe](G)[sp].[moe](G)}$$$$ (last 3' nucleoside missing)” was run?
**A.** Its 3 h FOB score is 0.75 score 0-7.

**Q.** How did the 3 h FOB score turn out when “RNA1{[moe]([m5C])[sp].[moe](T)[sp].[moe](T)[sp].[moe](T)[sp].[moe]([m5C])p.[moe](A)p.[moe](T)p.[moe](A)p.[moe](A)[sp].[moe](T)[sp].[moe](G)[sp].[moe]([m5C])[sp].[moe](T)[sp].[moe](G)[sp].[moe](G)}$$$$ (last 3' nucleoside missing)” was run?
**A.** The 3 h FOB score was 1 score 0-7.

**Q.** How did the 3 h FOB score turn out when “RNA1{[moe]([m5C])[sp].[moe](T)[sp].[moe](T)[sp].[moe](T)[sp].[moe]([m5C])p.[moe](A)p.[moe](T)p.[moe](A)p.[moe](A)p.[moe](T)p.[moe](G)p.[moe]([m5C])[sp].[moe](T)[sp].[moe](G)[sp].[moe](G)}$$$$ (last 3' nucleoside missing)” was run?
**A.** Its 3 h FOB score is 0 score 0-7.

**Q.** “RNA1{[moe]([m5C])[sp].[moe](T)[sp].[moe](T)[sp].[moe](T)p.[moe]([m5C])[sp].[moe](A)[sp].[moe](T)[sp].[moe](A)p.[moe](A)[sp].[moe](T)[sp].[moe](G)[sp].[moe]([m5C])p.[moe](T)[sp].[moe](G)[sp].[moe](G)}$$$$ (last 3' nucleoside missing)” was tested. Which 3 h FOB score did it give?
**A.** Its 3 h FOB score is 0.75 score 0-7.

**Q.** Which 3 h FOB score does the source give for “RNA1{[moe]([m5C])[sp].[moe](T)[sp].[moe](T)p.[moe](T)[sp].[moe]([m5C])[sp].[moe](A)[sp].[moe](T)[sp].[moe](A)[sp].[moe](A)[sp].[moe](T)[sp].[moe](G)[sp].[moe]([m5C])[sp].[moe](T)p.[moe](G)[sp].[moe](G)}$$$$ (last 3' nucleoside missing)” here?
**A.** The 3 h FOB score was 0.5 score 0-7.

**Q.** For “RNA1{[moe]([m5C])[sp].[moe](T)[sp].[moe](T)p.[moe](T)[sp].[moe]([m5C])[sp].[moe](A)p.[moe](T)[sp].[moe](A)[sp].[moe](A)p.[moe](T)[sp].[moe](G)[sp].[moe]([m5C])p.[moe](T)[sp].[moe](G)[sp].[moe](G)}$$$$ (last 3' nucleoside missing)”, which 3 h FOB score is on record?
**A.** The 3 h FOB score was 0 score 0-7.

**Q.** How did the 3 h FOB score turn out when “RNA1{[moe]([m5C])[sp].[moe](T)[sp].[moe](T)p.[moe](T)[sp].[moe]([m5C])[sp].[moe](A)p.[moe](T)[sp].[moe](A)[sp].[moe](A)p.[moe](T)[sp].[moe](G)p.[moe]([m5C])[sp].[moe](T)p.[moe](G)[sp].[moe](G)}$$$$ (last 3' nucleoside missing)” was run?
**A.** Its 3 h FOB score is 0 score 0-7.

**Q.** “RNA1{[moe]([m5C])[sp].[moe](T)[sp].[moe](T)p.[moe](T)[sp].[moe]([m5C])p.[moe](A)[sp].[moe](T)p.[moe](A)[sp].[moe](A)p.[moe](T)[sp].[moe](G)p.[moe]([m5C])[sp].[moe](T)p.[moe](G)[sp].[moe](G)}$$$$ (last 3' nucleoside missing)” was tested. Which 3 h FOB score did it give?
**A.** Its 3 h FOB score is 0.25 score 0-7.
